Reference: US11702401B2, “Compounds and methods of use” (Medivation Technologies LLC, priority 2014, dated 2023)

How the values were obtained:
[1] = Plasma and brain concentrations in male mice at 0.5 and 1 h; format: in vivo
[2] = Pharmacokinetics and bioavailability in male mice, oral single dose; format: in vivo; details: oral 10 mg/kg

| Brain Concentration ([1]; IV, 0.5 h) [nM] | Plasma Concentration ([1]; IV, 0.5 h) [nM] | Brain Concentration ([1]; IV, 1 h) [nM] | Plasma Concentration ([1]; IV, 1 h) [nM] | Brain Concentration ([1]; PO, 0.5 h) [nM] | Plasma Concentration ([1]; PO, 0.5 h) [nM] | Brain Concentration ([1]; PO, 1 h) [nM] | Plasma Concentration ([1]; PO, 1 h) [nM] | AUClast [2] [µM·h] | Tmax [2] [min] | SMILES |
| --- | --- | --- | --- | --- | --- | --- | --- | --- | --- | --- |
| 48 | 3040 | 19 | 1230 | 48 | 3420 | 25 | 1690 | 7.50 | 30 | C[C@H](O)CNC(=O)c1cnccc1Nc1cc(-c2cc(Cl)ccc2F)ncc1N(C)C (single isomer, unassigned) [16a] |
| 7 | 1690 | 5 | 967 | 20 | 7070 | 15 | 3530 |  |  | CC(C)c1cnc(-c2cc(Cl)ccc2F)cc1Nc1ccncc1C(=O)NC(CO)CO [compound 22, 4-[[2-(5-chloro-2-fluoro-phenyl)-5-isopropyl-4-pyridyl]amino]-N-[2-hydroxy-1-(hydroxymethyl)ethyl]pyridine-3-carboxamide] |
